The results in this text go back to ChEMBL document CHEMBL5241073, “Pharmacological Targeting of Executioner Proteins: Controlling Life and Death” (J Med Chem, 2021).

This assay has as its target Apoptosis regulator BAX (Homo sapiens, UniProt Q07812). Briefly: Inhibition of recombinant human BAX expressed in Escherichia coli BL21 (DE3) assessed as inhibition of liposome permeabilization and measured for 2 hrs by fluorescence analysis.

Sequence of Apoptosis regulator BAX (Q07812 whole entry): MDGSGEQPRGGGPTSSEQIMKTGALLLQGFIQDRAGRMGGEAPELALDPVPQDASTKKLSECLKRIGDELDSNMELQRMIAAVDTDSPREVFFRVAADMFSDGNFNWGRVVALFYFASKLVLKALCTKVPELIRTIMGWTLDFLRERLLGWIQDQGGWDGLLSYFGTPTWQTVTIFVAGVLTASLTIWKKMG

Broadly, the IC50 is the concentration that inhibits the measured activity by half. For the compound `COCCOCOc1ccc2c(c1)O[C@H](CN)[C@H]2N(Cc1ccc(Br)cc1)C(=O)[C@H](Cc1ccccc1)NC(=O)c1ccccc1`, the 50% inhibitory concentration (IC50) came out at 6 µM. For the compound `COCCOCOc1ccc2c(c1)O[C@H](CN(Cc1ccc(Br)cc1)C(=O)[C@H](Cc1ccccc1)NC(=O)c1ccccc1)[C@H]2N`, the IC50 was found to be 4 µM.
